# The source made the active and inactive calls. No cut-off for these calls is given here.
# Columns and labels:
# KM12 = assay: Growth inhibition of human KM12 cells at 10 uM relative to control; type: functional; conditions: read-out: GI
# NCI-H460 = assay: Growth inhibition of human NCI-H460 cells at 10 uM relative to control; type: functional; conditions: read-out: GI
# [1] = system: Panel NCI-60 (60 carcinoma cell lines); assay: Growth inhibition of human NCI60 cells; type: functional
# SK-OV-3 = assay: Growth inhibition of human SK-OV-3 cells at 10 uM relative to control; type: functional; conditions: read-out: GI
# TK-10 = assay: Growth inhibition of human TK-10 cells at 10 uM relative to control; type: functional; conditions: read-out: GI
# SK-MEL-28 = assay: Growth inhibition of human SK-MEL-28 cells at 10 uM relative to control; type: functional
# SF-295 = assay: Growth inhibition of human SF-295 cells at 10 uM relative to control; type: functional
# RXF 393 = assay: Growth inhibition of human RXF 393 cells at 10 uM relative to control; type: functional
# Malme-3M = assay: Growth inhibition of human Malme-3M cells at 10 uM relative to control; type: functional
# A498 = assay: Growth inhibition of human A498 cells at 10 uM relative to control; type: functional
# SW-620 = assay: Growth inhibition of human SW-620 cells at 10 uM relative to control; type: functional; conditions: read-out: GI
# NCI-H23 = assay: Growth inhibition of human NCI-H23 cells at 10 uM relative to control; type: functional; conditions: read-out: GI
# RPMI-8226 = assay: Growth inhibition of human RPMI-8226 cells at 10 uM relative to control; type: functional
# SN12C = assay: Growth inhibition of human SN12C cells at 10 uM relative to control; type: functional; conditions: read-out: GI
# HCT-15 = assay: Growth inhibition of human HCT-15 cells at 10 uM relative to control; type: functional; conditions: read-out: GI
# NCI-H226 = assay: Growth inhibition of human NCI-H226 cells at 10 uM relative to control; type: functional
# COLO 205 = assay: Growth inhibition of human COLO 205 cells at 10 uM relative to control; type: functional
# PC-3 = assay: Growth inhibition of human PC-3 cells at 10 uM relative to control; type: functional; conditions: read-out: GI
# SK-MEL-2 = assay: Growth inhibition of human SK-MEL-2 cells at 10 uM relative to control; type: functional
# SF-539 = assay: Growth inhibition of human SF-539 cells at 10 uM relative to control; type: functional
# IGROV-1 = assay: Growth inhibition of human IGROV-1 cells at 10 uM relative to control; type: functional
# DU-145 = assay: Growth inhibition of human DU-145 cells at 10 uM relative to control; type: functional; conditions: read-out: GI
# NCI/ADR-RES = assay: Growth inhibition of human NCI/ADR-RES cells at 10 uM relative to control; type: functional; conditions: read-out: GI
# HOP-92 = assay: Growth inhibition of human HOP-92 cells at 10 uM relative to control; type: functional
# CAKI-1 = assay: Growth inhibition of human CAKI-1 cells at 10 uM relative to control; type: functional
# DNA = assay: Displacement of methyl green from DNA (unknown origin) assessed as DNA intercalation after 24 hrs by colorimetric assay; type: nucleic-acid assay
# OVCAR-8 = assay: Growth inhibition of human OVCAR-8 cells at 10 uM relative to control; type: functional
# MDA-MB-468 = assay: Growth inhibition of human MDA-MB-468 cells at 10 uM relative to control; type: functional
# SNB-19 = assay: Growth inhibition of human SNB-19 cells at 10 uM relative to control; type: functional
# M14 = assay: Growth inhibition of human M14 cells at 10 uM relative to control; type: functional
# ACHN = assay: Growth inhibition of human ACHN cells at 10 uM relative to control; type: functional
# CCRF-CEM = assay: Growth inhibition of human CCRF-CEM cells at 10 uM relative to control; type: functional
# MOLT-4 = assay: Growth inhibition of human MOLT-4 cells at 10 uM relative to control; type: functional
# A549 = assay: Growth inhibition of human A549 cells at 10 uM relative to control; type: functional
# 786-0 = assay: Growth inhibition of human 786-0 cells at 10 uM relative to control; type: functional; conditions: read-out: GI
# UACC-62 = assay: Growth inhibition of human UACC-62 cells at 10 uM relative to control; type: functional
# NCI-H522 = assay: Growth inhibition of human NCI-H522 cells at 10 uM relative to control; type: functional
# U-251 = assay: Growth inhibition of human U-251 cells at 10 uM relative to control; type: functional; conditions: read-out: GI
# HCT-116 = assay: Growth inhibition of human HCT-116 cells at 10 uM relative to control; type: functional; conditions: read-out: GI
# UO-31 = assay: Growth inhibition of human UO-31 cells at 10 uM relative to control; type: functional; conditions: read-out: GI
# OVCAR-4 = assay: Growth inhibition of human OVCAR-4 cells at 10 uM relative to control; type: functional; conditions: read-out: GI
# SF-268 = assay: Growth inhibition of human SF-268 cells at 10 uM relative to control; type: functional
# HL-60(TB) = assay: Growth inhibition of human HL-60(TB) cells at 10 uM relative to control; type: functional
# Hs-578T = assay: Growth inhibition of human Hs-578T cells at 10 uM relative to control; type: functional
# SNB-75 = assay: Growth inhibition of human SNB-75 cells at 10 uM relative to control; type: functional
# HOP-62 = assay: Growth inhibition of human HOP-62 cells at 10 uM relative to control; type: functional; conditions: read-out: GI
# LOX IMVI = assay: Growth inhibition of human LOX IMVI cells at 10 uM relative to control; type: functional; conditions: read-out: GI
# T47D = assay: Growth inhibition of human T47D cells at 10 uM relative to control; type: functional
# MCF7 = assay: Growth inhibition of human MCF7 cells at 10 uM relative to control; type: functional; conditions: read-out: GI
# K562 = assay: Growth inhibition of human K562 cells at 10 uM relative to control; type: functional; conditions: read-out: GI
# HT-29 = assay: Growth inhibition of human HT-29 cells at 10 uM relative to control; type: functional; conditions: read-out: GI
# HCC 2998 = assay: Growth inhibition of human HCC 2998 cells at 10 uM relative to control; type: functional
# SK-MEL-5 = assay: Growth inhibition of human SK-MEL-5 cells at 10 uM relative to control; type: functional
# NCI-H322M = assay: Growth inhibition of human NCI-H322M cells at 10 uM relative to control; type: functional; conditions: read-out: GI
# BT-549 = assay: Growth inhibition of human BT-549 cells at 10 uM relative to control; type: functional
# SR = assay: Growth inhibition of human SR cells at 10 uM relative to control; type: functional
# OVCAR-5 = assay: Growth inhibition of human OVCAR-5 cells at 10 uM relative to control; type: functional
# MDA-MB-435 = assay: Growth inhibition of human MDA-MB-435 cells at 10 uM relative to control; type: functional
# MDA-MB-231 = assay: Growth inhibition of human MDA-MB-231 cells at 10 uM relative to control; type: functional; conditions: read-out: GI
# UACC-257 = assay: Growth inhibition of human UACC-257 cells at 10 uM relative to control; type: functional; conditions: read-out: GI
structure (smiles),measurement,setting,value
COc1cccc2c1C(=O)c1c(O)c3c(c(O)c1C2=O)C[C@@](O)(C(=O)CO)C[C@@H]3O[C@H]1C[C@H](N)[C@H](O)[C@H](C)O1 [DOXORUBICIN],inhibition of growth at 10 µM,KM12,95.8%
same,inhibition of growth at 10 µM,NCI-H460,99.4%
same,GI50,[1],150 nM
same,TGI,[1],2480 nM
same,inhibition of growth at 10 µM,SK-OV-3,86.2%
same,inhibition of growth at 10 µM,TK-10,74.6%
same,growth inhibition (GI),SK-MEL-28,Active
same,growth inhibition (GI),SF-295,Active
same,growth inhibition (GI),RXF 393,Active
same,growth inhibition (GI),Malme-3M,Active
same,growth inhibition (GI),A498,Active
same,inhibition of growth at 10 µM,SW-620,98.1%
same,inhibition of growth at 10 µM,NCI-H23,66.7%
same,growth inhibition (GI),RPMI-8226,Active
same,inhibition of growth at 10 µM,SN12C,88%
same,inhibition of growth at 10 µM,HCT-15,84.8%
same,growth inhibition (GI),NCI-H226,Active
same,growth inhibition (GI),COLO 205,Active
same,inhibition of growth at 10 µM,PC-3,98.7%
same,growth inhibition (GI),SK-MEL-2,Active
same,growth inhibition (GI),SF-539,Active
same,growth inhibition (GI),IGROV-1,Active
same,inhibition of growth at 10 µM,DU-145,86.8%
same,inhibition of growth at 10 µM,NCI/ADR-RES,95.1%
same,growth inhibition (GI),HOP-92,Active
same,growth inhibition (GI),CAKI-1,Active
same,IC50,DNA,31.27 µg/mL
same,growth inhibition (GI),OVCAR-8,Active
same,growth inhibition (GI),MDA-MB-468,Active
same,growth inhibition (GI),SNB-19,Active
same,growth inhibition (GI),M14,Active
same,growth inhibition (GI),ACHN,Active
same,growth inhibition (GI),CCRF-CEM,Active
same,growth inhibition (GI),MOLT-4,Active
same,growth inhibition (GI),A549,Active
same,inhibition of growth at 10 µM,786-0,95.5%
same,growth inhibition (GI),UACC-62,Active
same,growth inhibition (GI),NCI-H522,Active
same,inhibition of growth at 10 µM,U-251,90.8%
same,inhibition of growth at 10 µM,HCT-116,97.2%
same,inhibition of growth at 10 µM,UO-31,96%
same,inhibition of growth at 10 µM,OVCAR-4,85.9%
same,growth inhibition (GI),SF-268,Active
same,growth inhibition (GI),HL-60(TB),Active
same,growth inhibition (GI),Hs-578T,Active
same,growth inhibition (GI),SNB-75,Active
same,inhibition of growth at 10 µM,HOP-62,93.1%
same,inhibition of growth at 10 µM,LOX IMVI,94.3%
same,growth inhibition (GI),T47D,Active
same,inhibition of growth at 10 µM,MCF7,96.6%
same,inhibition of growth at 10 µM,K562,97.9%
same,inhibition of growth at 10 µM,HT-29,95.3%
same,growth inhibition (GI),HCC 2998,Active
same,growth inhibition (GI),SK-MEL-5,Active
same,inhibition of growth at 10 µM,NCI-H322M,86.1%
same,growth inhibition (GI),BT-549,Active
same,growth inhibition (GI),SR,Active
same,growth inhibition (GI),OVCAR-5,Active
same,growth inhibition (GI),MDA-MB-435,Active
same,inhibition of growth at 10 µM,MDA-MB-231,96.2%
same,inhibition of growth at 10 µM,UACC-257,96.5%

# Source: ChEMBL document CHEMBL4665869, “New thiazolopyrimidine as anticancer agents: Synthesis, biological evaluation, DNA binding, molecular modeling and ADMET study” (Bioorg Med Chem Lett, 2020)
